Experimental data published in patent US20250339569A1, “CARBONIC ANHYDRASE IX LIGANDS” (priority 2021, published 2025).
Like-named read-outs stand apart in the source and are kept apart here. Starred links: 1 amine or outer side, 2 acyl side, 3 side chain; linkers in the order of their positions; H or OH if unused. Positions of bridges follow the written chain, without caps; N, C: chain ends. Non-standard residues stand in square brackets, D forms with d. Residues, ends and D or L forms follow the SMILES beside them. *: point of attachment. Phe(3-NHCO(CH2)3SO2NH2) = N[C@@H](Cc1cccc(NC(=O)CCCS(N)(=O)=O)c1)C(=O)O; X3 = O=C(O)CN1CCN(CC(=O)O)CCN(CC(=O)NCCCOCCOCCOCCCN*)CCN(CC(=O)O)CC1; DOTA = O=C(O)CN1CCN(CC(=O)O)CCN(CC(=O)*)CCN(CC(=O)O)CC1; Phe(3,4-Cl2) = N[C@@H](Cc1ccc(Cl)c(Cl)c1)C(=O)O; Phe(4-NH2) = Nc1ccc(C[C@H](N)C(=O)O)cc1; mXylylene = c1cc(C[*:1])cc(C[*:2])c1; X46 = NS(=O)(=O)c1c[nH]c(C(=O)*)c1; X2 = O=C(CN1CCC(N[*:1])CC1)[*:2]; X52 = NS(=O)(=O)c1cnn(CC(=O)*)c1; X65 = NS(=O)(=O)c1ccc(C(=O)*)cn1; X1 = O=C(CN1CCN([*:1])CC1)[*:2]; Suc = O=C(CCC(=O)[*:2])[*:1]; X71 = O=C1NC(=O)C(CC(=O)*)N1; Dap = NC[C@H](N)C(=O)O; Sar = CNCC(=O)O

Experiments:
[1] = target: T1, CAIX-expressing human HT-29 colorectal cancer cells (Homo sapiens, UniProt Q16790); experiment: FACS binding assay (IC50 determination, competition with tracer 3BP-2776 or 3BP-4149); conditions: 4° C., 1 hour, read-out: pIC50 category (activity) (converted)
T1 construct: CAIX-expressing human HT-29 colorectal cancer cells; host or cells: HT-29 human colorectal cancer cells
Method in brief: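 HT-29 cells in FACS buffer (PBS, 1% FCS) at 500.000 cells/ml were exposed to compounds competing with a labelled tracer, with biotinylated compounds detected by 1 μg/mL APC-streptavidin for 30 min on ice. APC/Cy5 median fluorescence was read by flow cytometry and IC50 derived by 4PL fit.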

[2] = target: T2, human carbonic anhydrase IX (hCAIX-Fc) (Homo sapiens, UniProt Q16790); experiment: Surface plasmon resonance assay with hCAIX-Fc; type: binding; conditions: 25° C.; for t1/2 category (activity): SPR dissociation half-life, hCAIX-Fc; for Kd: SPR, hCAIX-Fc captured, read-out: pKD category (activity) (converted)
T2 construct: purchased SinoBliological (Sino Biological) 10107-H02H
Procedure: Surface plasmon resonance (SPR) studies were performed using a Biacore™ T200 SPR system (GE Healthcare Life Sciences). Briefly, polarized light is directed towards a gold-labeled sensor surface, and minimum intensity reflected light is detected. The angle of reflected light changes as molecules bind and dissociate.
Fc-fusion protein of human carbonic anhydrase IX (hCAIX-Fc, SinoBliological, Cat #10107-H02H) was captured on a Fc-capture chip (Biacore™ CM5 sensor chip coated with ˜300 RU of an Fc-binding peptide). Recombinant carbonic anydrase was diluted in Running Buffer (PBST, 0.1% DMSO) to a final concentration 100 or 200 nM and than flushed over the Fc-capture chip to immobilized ˜1000 RUs.
Stock solutions of test compounds were prepared by dissolving each compound in DMSO. DMSO stock solution were diluted 1:1000 in Running Buffer without DMSO. Further sequencial dilutions were made with Running Buffer containing 0.1% DMSO. SPR binding analyses were performed in Single Cycle Kinetic (SCK) mode at 25° C. Flow cell coated with the Fc-binding peptide only served as reference flowcell. After each SCK run, carbonic andydrase IX was removed with 10 mM glycine buffer, pH 1.5.
In between every three SCK measurements, a blank run with Running Buffer instead of test compound was included to correct for baseline drifts (double blanking methods).
Table 11 describes the protocol steps for Fc-fusion target capturing and assessment of the binding kinetics.
For each test compound, SPR raw data in the form of resonance units (RU) were plotted as sensorgrams using the Biacore™ T200 control software. The signal from the blank sensorgram was subtracted from that of the test compound sensorgram (blank corrected). The blank corrected sensorgram was corrected for baseline drift by subtracting the sensorgram of a SCK run without the test compound (running buffer only). The association rate (kon), dissociation rate (koff), dissociation constant (KD), and t1/2 were calculated from Blank-normalized SPR data using the 1:1 Langmuir binding model from the Biacore™ T200 evaluation software. Raw data and fit results were imported as text files in IDBS. The pKD value (negative decadic logarithm of dissociation constant) was calculated in the IDBS excel template.

[3] = FACS competition on HT-29 cells, Tracer ID 3BP-2776 (10 nM, biotin-labeled)
[4] = FACS binding assay, HT-29 cells, competition with tracer 3BP-2776 (10 nM, biotin-labeled)
[5] = FACS binding assay, HT-29 cells, competition with tracer 3BP-4149 (3 nM, Cy5-labeled)

SMILES	t1/2 category (activity) [2]	Kd [2]	IC50 [1, 4]	other results
CC(C)C[C@@H]1NC(=O)[C@H](Cc2c[nH]c3ccccc23)NC(=O)[C@H](CC(=O)O)NC(=O)CN(C)C(=O)[C@H](CCC(=O)O)NC(=O)[C@@H](NC(=O)[C@H](Cc2ccc(O)cc2)NC(=O)[C@@H](NC(=O)CCC(=O)NCCCOCCOCCOCCCNC(=O)CN2CCN(CC(=O)O)CCN(CC(=O)O)CCN(CC(=O)O)CC2)C(C)C)CSCc2cccc(c2)CSC[C@@H](C(N)=O)NC(=O)[C@H](CCC(N)=O)NC(=O)[C@H](Cc2c[nH]c3ccccc23)NC(=O)[C@H]([C@@H](C)O)NC1=O [3BP-3271] ({X3-Suc}-VYCE[Sar]DWLTWQC-NH2; linker 3-12 via mXylylene)	C (t1/2 between 2.1 and 5.0 minutes)	< 10 nM	–	IC50 [1, 3]: < 10 nM
CC(C)C[C@@H]1NC(=O)[C@H](Cc2c[nH]c3ccccc23)NC(=O)[C@H](CC(=O)O)NC(=O)CNC(=O)[C@H](CCC(=O)O)NC(=O)[C@@H](NC(=O)[C@H](Cc2ccc(O)cc2)NC(=O)[C@@H](NC(=O)CCC(=O)NCCCOCCOCCOCCCNC(=O)CN2CCN(CC(=O)O)CCN(CC(=O)O)CCN(CC(=O)O)CC2)C(C)C)CSCc2cccc(c2)CSC[C@@H](C(N)=O)NC(=O)[C@H](C)NC(=O)[C@H](Cc2c[nH]c3ccccc23)NC(=O)[C@H]([C@@H](C)O)NC1=O [3BP-3272] ({X3-Suc}-VYCEGDWLTWAC-NH2; linker 3-12 via mXylylene)	C (t1/2 between 2.1 and 5.0 minutes)	< 10 nM	–	IC50 [1, 3]: < 10 nM
CC(C)C[C@@H]1NC(=O)[C@H](Cc2c[nH]c3ccccc23)NC(=O)[C@H](CC(=O)O)NC(=O)[C@@H](C)NC(=O)[C@H](CCC(=O)O)NC(=O)[C@@H](NC(=O)[C@H](Cc2ccc(O)cc2)NC(=O)[C@@H](NC(=O)CCC(=O)NCCCOCCOCCOCCCNC(=O)CN2CCN(CC(=O)O)CCN(CC(=O)O)CCN(CC(=O)O)CC2)C(C)C)CSCc2cccc(c2)CSC[C@@H](C(N)=O)NC(=O)[C@H](C)NC(=O)[C@H](Cc2c[nH]c3ccccc23)NC(=O)[C@H]([C@@H](C)O)NC1=O [3BP-3279] ({X3-Suc}-VYCE[dA]DWLTWAC-NH2; linker 3-12 via mXylylene)	B (t1/2 between 5.1 and 15.0 minutes)	< 10 nM	–	IC50 [1, 3]: < 10 nM
CC(C)C[C@@H]1NC(=O)[C@H](Cc2c[nH]c3ccccc23)NC(=O)[C@H](CC(=O)O)NC(=O)CNC(=O)[C@H](CCC(=O)O)NC(=O)[C@@H](NC(=O)[C@H](Cc2ccc(O)cc2)NC(=O)[C@@H](NC(=O)CCC(=O)NCCCOCCOCCOCCCNC(=O)CN2CCN(CC(=O)O)CCN(CC(=O)O)CCN(CC(=O)O)CC2)C(C)C)CSCc2cccc(c2)CSC[C@@H](C(N)=O)NC(=O)[C@H](CCC(N)=O)NC(=O)[C@H](Cc2c[nH]c3ccccc23)NC(=O)[C@H]([C@@H](C)O)NC1=O [3BP-3328] ({X3-Suc}-VYCEGDWLTWQC-NH2; linker 3-12 via mXylylene)	–	< 10 nM	–	–
CC(C)C[C@@H]1NC(=O)[C@H](Cc2ccc(Cl)c(Cl)c2)NC(=O)[C@H](CC(=O)O)NC(=O)[C@H]2CCCN2C(=O)[C@H](CCC(=O)O)NC(=O)[C@@H]2CSCc3cccc(c3)CSC[C@@H](C(N)=O)NC(=O)[C@H](CNC(=O)C[C@H](NC(=O)[C@@H](NC(=O)CN3CCC(NC(=O)CN4CCN(CC(=O)O)CCN(CC(=O)O)CCN(CC(=O)O)CC4)CC3)C(C)C)C(=O)N2)NC(=O)[C@H](Cc2c[nH]c3ccccc23)NC(=O)[C@H]([C@@H](C)O)NC1=O [3BP-4439] ({DOTA}-[X2]VDCE[dP]D[Phe(3,4-Cl2)]LTW[Dap]C-NH2; lactam 3-12; linker 4-13 via mXylylene)	B (t1/2 between 5.1 and 15.0 minutes)	< 10 nM	–	–
CC(C)C[C@@H]1NC(=O)[C@H](Cc2cccc(NC(=O)CCCS(N)(=O)=O)c2)NC(=O)[C@H](CC(=O)O)NC(=O)[C@H]2CCCN2C(=O)[C@H](CCC(=O)O)NC(=O)[C@@H](NC(=O)[C@H](CCCNC(=N)N)NC(=O)CN2CCN(C(=O)CN3CCN(CC(=O)O)CCN(CC(=O)O)CCN(CC(=O)O)CC3)CC2)CSCc2cccc(c2)CSC[C@@H](C(N)=O)NC(=O)[C@H](CO)NC(=O)[C@H](Cc2c[nH]c3ccccc23)NC(=O)[C@H]([C@@H](C)O)NC1=O [3BP-4451] ({DOTA}-[X1]RCE[dP]D[Phe(3-NHCO(CH2)3SO2NH2)]LTWSC-NH2; linker 3-12 via mXylylene)	–	–	< 10 nM	–
CC(C)C[C@@H]1NC(=O)[C@H](Cc2ccc(NC(=O)CC3NC(=O)NC3=O)cc2)NC(=O)[C@H](CC(=O)O)NC(=O)[C@H]2CCCN2C(=O)[C@H](CCC(=O)O)NC(=O)[C@@H](NC(=O)[C@H](Cc2ccc(O)cc2)NC(=O)[C@@H](NC(=O)CN2CCC(NC(=O)CN3CCN(CC(=O)O)CCN(CC(=O)O)CCN(CC(=O)O)CC3)CC2)C(C)C)CSCc2cccc(c2)CSC[C@@H](C(N)=O)NC(=O)[C@H](CO)NC(=O)[C@H](Cc2c[nH]c3ccccc23)NC(=O)[C@H]([C@@H](C)O)NC1=O (stereo partly shown) [3BP-4458] ({DOTA}-[X2]VYCE[dP]D[Phe(4-NH2)](X71)LTWSC-NH2; linker 4-13 via mXylylene)	–	–	–	IC50 [1, 5]: 10 to 79.4 nM
CC(C)C[C@@H]1NC(=O)[C@H](Cc2ccc(NC(=O)c3ccc(S(N)(=O)=O)nc3)cc2)NC(=O)[C@H](CC(=O)O)NC(=O)[C@H]2CCCN2C(=O)[C@H](CCC(=O)O)NC(=O)[C@@H](NC(=O)[C@H](CCC(N)=O)NC(=O)CN2CCN(C(=O)CN3CCN(CC(=O)O)CCN(CC(=O)O)CCN(CC(=O)O)CC3)CC2)CSCc2cccc(c2)CSC[C@@H](C(N)=O)NC(=O)[C@H](CO)NC(=O)[C@H](Cc2c[nH]c3ccccc23)NC(=O)[C@H]([C@@H](C)O)NC1=O [3BP-4481] ({DOTA}-[X1]QCE[dP]D[Phe(4-NH2)](X65)LTWSC-NH2; linker 3-12 via mXylylene)	–	–	–	IC50 [1, 5]: 100 to 794 nM
CC(C)C[C@@H]1NC(=O)[C@H](Cc2ccc(NC(=O)Cn3cc(S(N)(=O)=O)cn3)cc2)NC(=O)[C@H](CC(=O)O)NC(=O)[C@H]2CCCN2C(=O)[C@H](CCC(=O)O)NC(=O)[C@@H](NC(=O)[C@H](CCC(N)=O)NC(=O)CN2CCN(C(=O)CN3CCN(CC(=O)O)CCN(CC(=O)O)CCN(CC(=O)O)CC3)CC2)CSCc2cccc(c2)CSC[C@@H](C(N)=O)NC(=O)[C@H](CO)NC(=O)[C@H](Cc2c[nH]c3ccccc23)NC(=O)[C@H]([C@@H](C)O)NC1=O [3BP-4482] ({DOTA}-[X1]QCE[dP]D[Phe(4-NH2)](X52)LTWSC-NH2; linker 3-12 via mXylylene)	–	–	–	IC50 [1, 5]: 100 to 794 nM

Further lines, with some results ahead:

t1/2 category (activity) [2]	Kd [2]	IC50 [1, 4]	SMILES	other results
–	–	100 to 794 nM	CC(C)C[C@@H]1NC(=O)[C@H](Cc2cccc(NC(=O)C3CCC(S(N)(=O)=O)CC3)c2)NC(=O)[C@H](CC(=O)O)NC(=O)[C@H]2CCCN2C(=O)[C@H](CCC(=O)O)NC(=O)[C@@H](NC(=O)[C@H](CCC(N)=O)NC(=O)CN2CCN(C(=O)CN3CCN(CC(=O)O)CCN(CC(=O)O)CCN(CC(=O)O)CC3)CC2)CSCc2cccc(c2)CSC[C@@H](C(N)=O)NC(=O)[C@H](CO)NC(=O)[C@H](Cc2c[nH]c3ccccc23)NC(=O)[C@H]([C@@H](C)O)NC1=O (stereo partly shown) [3BP-4787]	–
–	–	100 to 794 nM	CC(C)C[C@@H]1NC(=O)[C@H](Cc2ccc(NC(=O)c3cc(S(N)(=O)=O)c[nH]3)cc2)NC(=O)[C@H](CC(=O)O)NC(=O)[C@H]2CCCN2C(=O)[C@H](CCC(=O)O)NC(=O)[C@@H](NC(=O)[C@H](CCC(N)=O)NC(=O)CN2CCN(C(=O)CN3CCN(CC(=O)O)CCN(CC(=O)O)CCN(CC(=O)O)CC3)CC2)CSCc2cccc(c2)CSC[C@@H](C(N)=O)NC(=O)[C@H](CO)NC(=O)[C@H](Cc2c[nH]c3ccccc23)NC(=O)[C@H]([C@@H](C)O)NC1=O [3BP-4814] ({DOTA}-[X1]QCE[dP]D[Phe(4-NH2)](X46)LTWSC-NH2; linker 3-12 via mXylylene)	–
–	–	100 to 794 nM	CC(C)C[C@@H]1NC(=O)[C@H](Cc2cccc(NC(=O)Cn3cc(C(=O)NO)nn3)c2)NC(=O)[C@H](CC(=O)O)NC(=O)[C@H]2CCCN2C(=O)[C@H](CCC(=O)O)NC(=O)[C@@H](NC(=O)[C@H](CCC(N)=O)NC(=O)CN2CCN(C(=O)CN3CCN(CC(=O)O)CCN(CC(=O)O)CCN(CC(=O)O)CC3)CC2)CSCc2cccc(c2)CSC[C@@H](C(N)=O)NC(=O)[C@H](CO)NC(=O)[C@H](Cc2c[nH]c3ccccc23)NC(=O)[C@H]([C@@H](C)O)NC1=O [3BP-4847]	–
